Reference: article PMC7429263 (ACS infectious diseases, 2020)
In brackets after ≈: the same amount, converted by molar mass. Read-outs that look alike come from different tables or passages of the source.

Tests used:
[1] = system: VanA E. faecium ATCC BAA-2317; experiment: standard microdilution antimicrobial assay; type: cell-based
VanA E. faecalis BM 4166 = experiment: standard microdilution antimicrobial assay; type: cell-based
in vivo PK in mice = conditions: iv
[2] = system: VanA VRE E. faecalis BM 4166 and E. faecium ATCC BAA-2317; conditions: 3 even at 100 μM; cited from earlier work
VanA VRE, 4 strains [3] = experiment: standard microdilution assay, panel of vancomycin-resistant organisms; type: cell-based, E. faecalis, E. faecium
two VanA VRE strains [4] = conditions: same two VanA VRE strains; cited from earlier work
[5] = system: VanA VRSA strain (VRS2), S. aureus; conditions: cited from earlier work
[6] = system: VanA VRE E. faecalis BM 4166; experiment: microbe, parasite or virus in culture; conditions: Enterococcus faecalis
[7] = system: VanA VRE E. faecalis BM 4166; conditions: BM 4166, +LTA 100 μg/mL
[8] = system: MRSA S. aureus ATCC 43300; experiment: standard microdilution antimicrobial assay; type: cell-based; conditions: Staphylococcus aureus, ATCC43300|MRSA
[9] = system: VanA VRE E. faecalis BM 4166 and E. faecium ATCC BAA-2317; experiment: bacteria cell membrane permeability assay; conditions: 10 μM added at 5 min
[10] = system: VanA VRE E. faecalis BM 4166 and E. faecium ATCC BAA-2317; experiment: microdilution antimicrobial assay with added LTA or other additives; type: cell-based; conditions: 100 μg/mL LTA
VanA E. faecium TX2465 = experiment: standard microdilution antimicrobial assay; type: cell-based; conditions: Enterococcus faecium
[11] = D-Ala-D-Ala to D-Ala-D-Lac remodeling; cited from earlier work
[12] = system: Sensitive S. aureus ATCC 25923; experiment: standard microdilution antimicrobial assay; type: cell-based; conditions: Staphylococcus aureus, ATCC25923
[13] = system: VanA VRE E. faecium ATCC BAA-2317; type: cell-based; conditions: ATCC BAA-2317, +LTA 100 μg/mL
[14] = system: VanB E. faecalis ATCC 51299; experiment: standard microdilution antimicrobial assay; type: cell-based; conditions: Enterococcus faecalis, ATCC51299
VanA VRE, 4 strains [15] = conditions: resistant pathogens with D-Ala-D-Lac cell wall precursor; cited from earlier work
two VanA VRE strains [16] = experiment: multi-passage resistance development assay; type: cell-based; conditions: Enterococcus

CN[C@H](CC(C)C)C(=O)N[C@H]1C(=O)N[C@@H](CC(N)=O)C(=O)N[C@H]2C(=O)N[C@H]3C(=O)N[C@H](C(=O)N[C@H](C(=O)N[C@@H](CCCNC(=N)N)C(=O)O)c4cc(O)cc(O)c4-c4cc3ccc4O)[C@H](O)c3ccc(c(Cl)c3)Oc3cc2cc(c3OC2OC(CO)C(O)[C@H](O)C2O[C@H]2CC(C)(N)[C@H](O)[C@H](C)O2)Oc2ccc(cc2Cl)[C@H]1O (stereo partly shown) [Arg-vancomycin (11)] showed an MIC [1] of 63 µg/mL (≈ 39.2 µM) and an MIC (VanA E. faecalis BM 4166; VanA E. faecalis BM 4166) of 63 µg/mL (≈ 39.2 µM).
In the case of CN[C@H](CC(C)C)C(=O)N[C@H]1C(=O)N[C@@H](CC(N)=O)C(=O)N[C@H]2C(=O)NC3C(=O)N[C@H](C(=O)N[C@H](C(=O)NCCC[N+](C)(C)C)c4cc(O)cc(O)c4-c4cc3ccc4O)[C@H](O)c3ccc(c(Cl)c3)Oc3cc2cc(c3OC2OC(CO)C(O)[C@H](O)[C@@H]2O[C@H]2CC(C)(NCc3ccc(-c4ccc(Cl)cc4)cc3)[C@H](O)[C@H](C)O2)Oc2ccc(cc2Cl)[C@H]1O (stereo partly shown) [C1-CBP-vancomycin (4)], the AUC (in vivo PK in mice; 10 mg/kg) is reported as 48.4 Mg-h/mL, the CL (in vivo PK in mice; 10 mg/kg) is reported as 2 mL/min/kg and the Cmax (in vivo PK in mice; 10 mg/kg) is reported as 14.5 Mg/mL. The Vss (in vivo PK in mice; 10 mg/kg) was 0.64 L/kg, the t1/2 (in vivo PK in mice; 10 mg/kg) was 5.1 h and the tmax (in vivo PK in mice; 10 mg/kg) was 4.8 min. The “induced cell membrane permeabilization, in words” value [2] was “pronounced membrane permeabilization”, the MIC [1] was 0.3 µg/mL and the “improvement in antimicrobial potency compared with vancomycin” value (VanA VRE, 4 strains [3]) was “ca. 1000 fold”.
For CN[C@H](CC(C)C)C(=O)N[C@H]1C(=O)N[C@@H](CC(N)=O)C(=O)N[C@H]2C(=O)NC3C(=O)N[C@H](C(=O)N[C@H](C(=O)NCCC[N+](C)(C)C)c4cc(O)cc(O)c4-c4cc3ccc4O)[C@H](O)c3ccc(c(Cl)c3)Oc3cc2cc(c3OC2OC(CO)C(O)[C@H](O)[C@@H]2O[C@H]2CC(C)(N)[C@H](O)[C@H](C)O2)Oc2ccc(cc2Cl)[C@H]1O (stereo partly shown) [C1-vancomycin (3)], the “induced cell membrane permeabilization, in words” value [2] is listed as “weaker” and the MIC [1] is listed as 31 µg/mL.
In the case of CCCCCCCCCC(=O)N[C@@H](Cc1c[nH]c2ccccc12)C(=O)N[C@H](CC(N)=O)C(=O)N[C@@H](CC(=O)O)C(=O)N[C@@H]1C(=O)NCC(=O)N[C@@H](CCCN)C(=O)N[C@@H](CC(=O)O)C(=O)N[C@H](C)C(=O)N[C@@H](CC(=O)O)C(=O)NCC(=O)N[C@H](CO)C(=O)N[C@@H]([C@H](C)CC(=O)O)C(=O)N[C@@H](CC(=O)c2ccccc2N)C(=O)O[C@@H]1C [daptomycin], the “rate of resistance emergence, in words” value (two VanA VRE strains [4]) is given as “raise resistance more rapidly and in a more pronounced manner than either 2 or 5”.
In the case of CC(=O)NC[C@H]1CN(c2ccc(N3CCOCC3)c(F)c2)C(=O)O1 [linezolid], the “rate of resistance emergence, in words” value (two VanA VRE strains [4]) is given as “raise resistance more rapidly and in a more pronounced manner than either 2 or 5”.
For CN(C)c1cc(NC(=O)CNC(C)(C)C)c(O)c2c1C[C@H]1C[C@H]3[C@H](N(C)C)C(O)=C(C(N)=O)C(=O)[C@@]3(O)C(O)=C1C2=O [tigecycline], the “rate of resistance emergence, in words” value (two VanA VRE strains [4]) is listed as “raise resistance more rapidly and in a more pronounced manner than either 2 or 5”.
In the case of CN[C@H](CC(C)C)C(=O)N[C@H]1C(=O)N[C@@H](CC(N)=O)C(=O)N[C@H]2C(=O)N[C@H]3C(=O)N[C@H](C(=O)N[C@H](C(=O)O)c4cc(O)cc(O)c4-c4cc3ccc4O)[C@H](O)c3ccc(c(Cl)c3)Oc3cc2cc(c3O[C@@H]2O[C@H](CO)[C@@H](O)[C@H](O)[C@H]2O[C@H]2C[C@](C)(N)[C@H](O)[C@H](C)O2)Oc2ccc(cc2Cl)[C@H]1O [vancomycin (1), vancomycin], the “activity in the thigh infection model, in words” value [5] is listed as “inactive”, the MIC [6] is listed as 250 µg/mL (≈ 173 µM) and the “dose proportionality of PK, in words” value (in vivo PK in mice) is listed as “well behaved dose proportional PK across all parameters”. For the same compound, the MIC [7] was 250 µg/mL (≈ 173 µM), the MIC [8] was 0.5 µg/mL (≈ 0.345 µM) and the “induced cell membrane permeabilization, in words” value [9] was “no permeabilization”. The “decrease of antimicrobial activity with added LTA” value [10] was “no difference”, the MIC (VanA E. faecium TX2465) was 250 µg/mL (≈ 173 µM) and the “reduction of binding affinity” value [11] was 1000 fold. The MIC [12] was 0.5 µg/mL (≈ 0.345 µM), the MIC (VanA E. faecalis BM 4166; Enterococcus faecalis) was 250 µg/mL (≈ 173 µM) and the MIC [13] was 250 µg/mL (≈ 173 µM). For the same compound, the MIC [14] was 8 µg/mL (≈ 5.52 µM), the “reduction of antimicrobial potency” value (VanA VRE, 4 strains [15]) was 1000 fold and the MIC (two VanA VRE strains [16]) was 250 µg/mL (≈ 173 µM).
